{"source": "paper PMC5218480", "about": "(PLoS ONE, 2017)", "test_system": "MV-4-11 cells", "experiment": "Gene expression microarray analysis (Affymetrix PrimeView) and GSEA", "type": "cell-based, human", "design": "RFU PODN (11730768_x_at) / Fold change /veh PODN (11730768_x_at) / RFU LINC00158 (11744669_a_at) / Fold change /veh LINC00158 (11744669_a_at) / RFU DUSP10 (11751237_a_at) / Fold change /veh DUSP10 (11751237_a_at) / RFU ID3 (11757404_x_at) / Fold change /veh ID3 (11757404_x_at) / RFU PLEKHG5 (11737974_s_at) / Fold change /veh PLEKHG5 (11737974_s_at) / RFU LRRC4B (11730491_at) / Fold change /veh LRRC4B (11730491_at) / RFU GIMAP4 (11747438_a_at) / Fold change /veh GIMAP4 (11747438_a_at) / RFU KRT8 (11758183_x_at) / Fold change /veh KRT8 (11758183_x_at) / RFU CNN1 (11734310_a_at) / Fold change /veh CNN1 (11734310_a_at) / RFU VPS37D (11726825_at) / Fold change /veh VPS37D (11726825_at) / RFU C10orf10 (11716522_x_at) / Fold change /veh C10orf10 (11716522_x_at) / RFU KIR2DL2 /// KIR2DL4 /// KIR2DL5A /// KIR2DL5B /// KIR2DS1 /// KIR2DS2 /// KIR2DS3 /// KIR2DS4 /// KIR3DL3 /// KIR3DL3 /// KIR3DS1 (11738374_at) / Fold change /veh KIR2DL2 /// KIR2DL4 /// KIR2DL5A /// KIR2DL5B /// KIR2DS1 /// KIR2DS2 /// KIR2DS3 /// KIR2DS4 /// KIR3DL3 /// KIR3DL3 /// KIR3DS1 (11738374_at) / RFU C1QL1 (11718748_at) / Fold change /veh C1QL1 (11718748_at) / RFU TMPRSS4 (11747572_a_at) / Fold change /veh TMPRSS4 (11747572_a_at) / RFU HAMP (11756126_x_at) / Fold change /veh HAMP (11756126_x_at) / RFU RNFT2 (11725882_a_at) / Fold change /veh RNFT2 (11725882_a_at) / RFU NR4A2 (11747474_a_at) / Fold change /veh NR4A2 (11747474_a_at) / RFU ABCC12 (11746883_a_at) / Fold change /veh ABCC12 (11746883_a_at) / RFU TMEM136 (11760407_x_at) / Fold change /veh TMEM136 (11760407_x_at) / RFU CLDN22 /// WWC2 (11732394_at) / Fold change /veh CLDN22 /// WWC2 (11732394_at) / RFU HLA-DPB1 (11760878_x_at) / Fold change /veh HLA-DPB1 (11760878_x_at) / RFU SPINT1 (11716480_a_at) / Fold change /veh SPINT1 (11716480_a_at) / RFU GAP43 (11754022_s_at) / Fold change /veh GAP43 (11754022_s_at) / RFU A4GNT (11735810_at) / Fold change /veh A4GNT (11735810_at) / RFU PRB3 (11715151_x_at) / Fold change /veh PRB3 (11715151_x_at) / RFU TUBB4B (11761932_at) / Fold change /veh TUBB4B (11761932_at) / RFU CAPN14 (11732068_a_at) / Fold change /veh CAPN14 (11732068_a_at) / RFU TMCC2 (11721928_a_at) / Fold change /veh TMCC2 (11721928_a_at) / RFU IRGQ (11745062_a_at) / Fold change /veh IRGQ (11745062_a_at) / RFU FAM174B (11720279_a_at) / Fold change /veh FAM174B (11720279_a_at) / RFU TMPRSS4 (11748680_a_at) / Fold change /veh TMPRSS4 (11748680_a_at) / RFU FAM212B (11763350_a_at) / Fold change /veh FAM212B (11763350_a_at) / RFU PLEKHG5 (11743358_a_at) / Fold change /veh PLEKHG5 (11743358_a_at) / RFU ZSCAN30 (11745921_a_at) / Fold change /veh ZSCAN30 (11745921_a_at) / RFU CMKLR1 (11741424_a_at) / Fold change /veh CMKLR1 (11741424_a_at) / RFU LOC101060620 /// MAPK8IP1 (11723275_at) / Fold change /veh LOC101060620 /// MAPK8IP1 (11723275_at) / RFU SPTSSB (11747773_x_at) / Fold change /veh SPTSSB (11747773_x_at) / RFU PRSS12 (11739890_at) / Fold change /veh PRSS12 (11739890_at) / RFU BIN1 (11741810_x_at) / Fold change /veh BIN1 (11741810_x_at) / RFU WNT11 (11732464_a_at) / Fold change /veh WNT11 (11732464_a_at) / RFU C10orf10 (11716521_a_at) / Fold change /veh C10orf10 (11716521_a_at) / RFU C5orf56 (11738089_at) / Fold change /veh C5orf56 (11738089_at) / RFU CYB561 (11721691_x_at) / Fold change /veh CYB561 (11721691_x_at) / RFU ANKRD19P (11752326_a_at) / Fold change /veh ANKRD19P (11752326_a_at) / RFU OR2T12 /// OR2T33 /// OR2T8 (11738714_s_at) / Fold change /veh OR2T12 /// OR2T33 /// OR2T8 (11738714_s_at) / RFU VCAN (11748164_a_at) / Fold change /veh VCAN (11748164_a_at) / RFU JSRP1 (11732532_at) / Fold change /veh JSRP1 (11732532_at) / RFU KRTAP10-11 (11738290_x_at) / Fold change /veh KRTAP10-11 (11738290_x_at) / RFU MYO3A (11730013_a_at) / Fold change /veh MYO3A (11730013_a_at) / RFU EBF3 (11725865_a_at) / Fold change /veh EBF3 (11725865_a_at) / RFU CAMK2N1 (11719241_x_at) / Fold change /veh CAMK2N1 (11719241_x_at) / RFU C5orf56 (11738088_a_at) / Fold change /veh C5orf56 (11738088_a_at) / RFU OLFML3 (11715873_a_at) / Fold change /veh OLFML3 (11715873_a_at) / RFU LOC100653217 /// NTM (11731650_a_at) / Fold change /veh LOC100653217 /// NTM (11731650_a_at) / RFU MAPK11 (11762145_a_at) / Fold change /veh MAPK11 (11762145_a_at) / RFU FIZ1 (11724087_x_at) / Fold change /veh FIZ1 (11724087_x_at) / RFU OASL (11726364_x_at) / Fold change /veh OASL (11726364_x_at) / RFU SOX15 (11748057_x_at) / Fold change /veh SOX15 (11748057_x_at) / RFU CD79A (11719716_a_at) / Fold change /veh CD79A (11719716_a_at) / RFU HIST1H1D (11736915_at) / Fold change /veh HIST1H1D (11736915_at) / RFU CASKIN2 (11723855_a_at) / Fold change /veh CASKIN2 (11723855_a_at) / RFU LOC730098 (11760151_x_at) / Fold change /veh LOC730098 (11760151_x_at) / RFU OR4N2 (11742367_at) / Fold change /veh OR4N2 (11742367_at) / RFU PRRT2 (11749266_a_at) / Fold change /veh PRRT2 (11749266_a_at) / RFU SNX32 (11753110_a_at) / Fold change /veh SNX32 (11753110_a_at) / RFU CDHR5 (11726645_a_at) / Fold change /veh CDHR5 (11726645_a_at) / RFU RCAN1 (11760418_a_at) / Fold change /veh RCAN1 (11760418_a_at) / RFU FAM167A (11723789_a_at) / Fold change /veh FAM167A (11723789_a_at) / RFU FAM26E (11764081_at) / Fold change /veh FAM26E (11764081_at) / RFU ISYNA1 (11749810_s_at) / Fold change /veh ISYNA1 (11749810_s_at) / RFU ACY1 (11761880_at) / Fold change /veh ACY1 (11761880_at) / RFU 11764098_at / Fold change /veh 11764098_at / RFU SAMD14 (11745864_x_at) / Fold change /veh SAMD14 (11745864_x_at) / RFU NPB (11741838_a_at) / Fold change /veh NPB (11741838_a_at) / RFU TMPRSS6 (11731388_a_at) / Fold change /veh TMPRSS6 (11731388_a_at) / RFU KRTAP10-2 (11738614_at) / Fold change /veh KRTAP10-2 (11738614_at) / RFU ARHGAP8 /// PRR5-ARHGAP8 (11727945_x_at) / Fold change /veh ARHGAP8 /// PRR5-ARHGAP8 (11727945_x_at) / RFU KRTAP5-7 /// NADSYN1 (11734609_at) / Fold change /veh KRTAP5-7 /// NADSYN1 (11734609_at) / RFU RASL12 (11751679_a_at) / Fold change /veh RASL12 (11751679_a_at) / RFU CDKN2B (11736163_a_at) / Fold change /veh CDKN2B (11736163_a_at) / RFU PRF1 (11729649_at) / Fold change /veh PRF1 (11729649_at) / RFU, ZNF638 /// ZNF638-IT1 / Fold change vs veh, ZNF638 /// ZNF638-IT1 / RFU, PANK3 / Fold change vs veh, PANK3 / RFU, SH3YL1 / Fold change vs veh, SH3YL1 / RFU, ZEB2 / Fold change vs veh, ZEB2 / RFU, NRIP1 / Fold change vs veh, NRIP1 / RFU, PTTG1IP / Fold change vs veh, PTTG1IP / RFU, CAPN2 / Fold change vs veh, CAPN2 / RFU, MED14 / Fold change vs veh, MED14 / RFU, SNORA58 / Fold change vs veh, SNORA58 / RFU, C1orf63 / Fold change vs veh, C1orf63 / RFU, LRRFIP1 / Fold change vs veh, LRRFIP1 / RFU, NDUFAF7 / Fold change vs veh, NDUFAF7 / RFU, SLC12A2 / Fold change vs veh, SLC12A2 / RFU, IBTK / Fold change vs veh, IBTK / RFU, ESF1 / Fold change vs veh, ESF1 / Fold change vs veh, TMEM50B / RFU, TAOK1 / Fold change vs veh, TAOK1 / RFU, ACBD3 / Fold change vs veh, ACBD3 / RFU, TMA16 / Fold change vs veh, TMA16 / RFU, RWDD3 / Fold change vs veh, RWDD3 / RFU, BCAT1 / Fold change vs veh, BCAT1 / RFU, EDEM3 / Fold change vs veh, EDEM3 / RFU, TMEM33 / Fold change vs veh, TMEM33 / RFU, WDR75 / Fold change vs veh, WDR75 / RFU, AHCTF1 / Fold change vs veh, AHCTF1 / RFU, TFRC / Fold change vs veh, TFRC / RFU, ZDHHC17 / Fold change vs veh, ZDHHC17 / RFU, NOM1 / Fold change vs veh, NOM1 / RFU, ARL8B / Fold change vs veh, ARL8B / RFU, ZBTB11 / Fold change vs veh, ZBTB11 / RFU, TAMM41 / Fold change vs veh, TAMM41 / RFU, KIAA1704 /// LOC100996395 / Fold change vs veh, KIAA1704 /// LOC100996395 / RFU, ING1 / Fold change vs veh, ING1 / RFU, TRMT61B / Fold change vs veh, TRMT61B / RFU, FUBP3 / Fold change vs veh, FUBP3 / RFU, TP53 / Fold change vs veh, TP53 / RFU, TNKS2 / Fold change vs veh, TNKS2 / RFU, ZFP14 / Fold change vs veh, ZFP14 / RFU, ACTR2 / Fold change vs veh, ACTR2 / RFU, PPP3R1 / Fold change vs veh, PPP3R1 / RFU, PIK3R1 / Fold change vs veh, PIK3R1 / RFU, HNRNPA1 / Fold change vs veh, HNRNPA1 / RFU, RNF170 / Fold change vs veh, RNF170 / RFU, ZNF28 / Fold change vs veh, ZNF28 / RFU, RNGTT / Fold change vs veh, RNGTT / RFU, OGT / Fold change vs veh, OGT / RFU, BRD1 / Fold change vs veh, BRD1 / RFU, MARS / Fold change vs veh, MARS / RFU, ZNF655 / Fold change vs veh, ZNF655 / RFU, FAHD1 / Fold change vs veh, FAHD1 / RFU, BDP1 / Fold change vs veh, BDP1 / RFU, LRRCC1 / Fold change vs veh, LRRCC1 / RFU, ARID1A / Fold change vs veh, ARID1A / RFU, ZNF146 / Fold change vs veh, ZNF146 / RFU, ZNF330 / Fold change vs veh, ZNF330 / RFU, GPN3 / Fold change vs veh, GPN3 / RFU, C9orf123 / Fold change vs veh, C9orf123 / RFU, N4BP2L2 / Fold change vs veh, N4BP2L2 / RFU, ARFIP1 / Fold change vs veh, ARFIP1 / RFU, FAM179B / Fold change vs veh, FAM179B / RFU, BCL10 / Fold change vs veh, BCL10 / RFU, UHRF1BP1L / Fold change vs veh, UHRF1BP1L / RFU, BET1 / Fold change vs veh, BET1 / RFU, CNOT2 / Fold change vs veh, CNOT2 / RFU, ZNF268 / Fold change vs veh, ZNF268 / Fold change vs veh, ZNF507 / RFU, DGCR2 / Fold change vs veh, DGCR2 / RFU, WDSUB1 / Fold change vs veh, WDSUB1 / Fold change vs veh, HSP90B1 /// MIR3652 / RFU, ADSS / Fold change vs veh, ADSS / RFU, GK / Fold change vs veh, GK / RFU, ZNF148 / Fold change vs veh, ZNF148 / RFU, TAF9 / Fold change vs veh, TAF9 / RFU, SLC1A5 / Fold change vs veh, SLC1A5 / RFU, SLMO2 / Fold change vs veh, SLMO2 / RFU, ABCC4 / Fold change vs veh, ABCC4 / RFU, LOC101060439 /// RAP1B / Fold change vs veh, LOC101060439 /// RAP1B / RFU, RFX7 / Fold change vs veh, RFX7 / RFU, GTPBP10 / Fold change vs veh, GTPBP10 / RFU, CNEP1R1 / Fold change vs veh, CNEP1R1 / RFU, BIVM-ERCC5 /// ERCC5 / Fold change vs veh, BIVM-ERCC5 /// ERCC5 / RFU, ILF3 / Fold change vs veh, ILF3 / RFU 11762660_at / Fold change /veh 11762660_at / RFU VCAN (11757783_s_at) / Fold change /veh VCAN (11757783_s_at) / RFU DDX43 (11728927_at) / Fold change /veh DDX43 (11728927_at) / RFU KRT8 (11758188_x_at) / Fold change /veh KRT8 (11758188_x_at) / RFU NKD1 (11759106_at) / Fold change /veh NKD1 (11759106_at) / RFU SRD5A1 (11742802_a_at) / Fold change /veh SRD5A1 (11742802_a_at) / RFU TPSAB1 /// TPSB2 (11721975_s_at) / Fold change /veh TPSAB1 /// TPSB2 (11721975_s_at) / RFU GSTM3 (11746129_a_at) / Fold change /veh GSTM3 (11746129_a_at) / RFU IL23R (11737362_x_at) / Fold change /veh IL23R (11737362_x_at) / RFU TMEM51 (11727254_a_at) / Fold change /veh TMEM51 (11727254_a_at) / RFU PIWIL2 (11732686_x_at) / Fold change /veh PIWIL2 (11732686_x_at) / RFU ORM1 (11744905_x_at) / Fold change /veh ORM1 (11744905_x_at) / RFU CCDC152 (11743942_at) / Fold change /veh CCDC152 (11743942_at) / RFU ECM1 (11717891_a_at) / Fold change /veh ECM1 (11717891_a_at) / RFU IL23R (11748794_a_at) / Fold change /veh IL23R (11748794_a_at) / RFU TNFAIP8L3 (11732012_x_at) / Fold change /veh TNFAIP8L3 (11732012_x_at) / RFU MBOAT4 (11741988_at) / Fold change /veh MBOAT4 (11741988_at) / RFU 11764193_at / Fold change /veh 11764193_at / RFU TMEM53 (11763286_at) / Fold change /veh TMEM53 (11763286_at) / RFU MAGEB2 (11727129_at) / Fold change /veh MAGEB2 (11727129_at) / RFU TMEM200A (11744735_a_at) / Fold change /veh TMEM200A (11744735_a_at) / RFU CCDC152 (11751479_a_at) / Fold change /veh CCDC152 (11751479_a_at) / RFU FAM211A (11726209_a_at) / Fold change /veh FAM211A (11726209_a_at) / RFU RGS16 (11746705_a_at) / Fold change /veh RGS16 (11746705_a_at) / RFU VCAN (11755009_s_at) / Fold change /veh VCAN (11755009_s_at) / RFU RHOB (11743442_s_at) / Fold change /veh RHOB (11743442_s_at) / RFU RGS16 (11720943_a_at) / Fold change /veh RGS16 (11720943_a_at) / RFU RGS16 (11720944_at) / Fold change /veh RGS16 (11720944_at) / RFU, VPS4B / Fold change vs veh, VPS4B / RFU, CREB1 / Fold change vs veh, CREB1 / RFU, DNAJC13 / Fold change vs veh, DNAJC13 / RFU, GNAQ / Fold change vs veh, GNAQ / RFU, CDK5R1 / Fold change vs veh, CDK5R1 / RFU, ZRANB3 / Fold change vs veh, ZRANB3 / RFU, CUL4A / Fold change vs veh, CUL4A / RFU, CCNY / Fold change vs veh, CCNY / RFU, UFL1 / Fold change vs veh, UFL1 / RFU, COG3 / Fold change vs veh, COG3 / RFU, DIAPH2 / Fold change vs veh, DIAPH2 / RFU, SKA2 / Fold change vs veh, SKA2 / RFU, AFF3 / Fold change vs veh, AFF3 / RFU, LMF1 / Fold change vs veh, LMF1 / RFU, IPO11 / Fold change vs veh, IPO11 / RFU, DFFB / Fold change vs veh, DFFB / RFU, FOXP1 / Fold change vs veh, FOXP1 / RFU, CARD8 / Fold change vs veh, CARD8 / RFU, STRN3 / Fold change vs veh, STRN3 / RFU, ADK / Fold change vs veh, ADK / RFU, RASSF2 / Fold change vs veh, RASSF2 / RFU, WIPF1 / Fold change vs veh, WIPF1 / RFU, LARP1B / Fold change vs veh, LARP1B / RFU, RASA1 / Fold change vs veh, RASA1 / RFU, RB1 / Fold change vs veh, RB1 / RFU, PPFIA1 / Fold change vs veh, PPFIA1 / RFU, MAT2A / Fold change vs veh, MAT2A / RFU, CCT5 / Fold change vs veh, CCT5 / RFU, WDR92 / Fold change vs veh, WDR92 / RFU, CUX1 / Fold change vs veh, CUX1 / RFU, TTC7A / Fold change vs veh, TTC7A / RFU, TMEM135 / Fold change vs veh, TMEM135 / RFU, DEPTOR / Fold change vs veh, DEPTOR / RFU, CPM / Fold change vs veh, CPM / RFU, DNAJB6 / Fold change vs veh, DNAJB6 / RFU, CACNA2D3 / Fold change vs veh, CACNA2D3 / RFU, DTX4 / Fold change vs veh, DTX4 / RFU, TFCP2 / Fold change vs veh, TFCP2 / RFU, GMCL1 /// GMCL1P1 / Fold change vs veh, GMCL1 /// GMCL1P1 / RFU, AEBP2 / Fold change vs veh, AEBP2 / RFU, SNHG1 /// SNORD22 /// SNORD25 /// SNORD26 /// SNORD27 /// SNORD28 /// SNORD29 /// SNORD31 / Fold change vs veh, SNHG1 /// SNORD22 /// SNORD25 /// SNORD26 /// SNORD27 /// SNORD28 /// SNORD29 /// SNORD31 / Fold change (Aza/veh), C12orf56 (ProbeSet 11735607_a_at) / Fold change (ACY-1035/veh), C12orf56 (ProbeSet 11735607_a_at) / Fold change (Aza/veh), FGFR1OP (ProbeSet 11751329_s_at) / Fold change (ACY-1035/veh), FGFR1OP (ProbeSet 11751329_s_at) / Fold change (Aza/veh), VPS36 (ProbeSet 11739960_a_at) / Fold change (ACY-1035/veh), VPS36 (ProbeSet 11739960_a_at) / RFU SYPL1 (11715823_x_at) / Fold change /veh SYPL1 (11715823_x_at) / RFU IGFBP7 (11715501_s_at) / Fold change /veh IGFBP7 (11715501_s_at) / RFU REEP3 (11722064_at) / Fold change /veh REEP3 (11722064_at) / RFU IGLL1 (11728026_x_at) / Fold change /veh IGLL1 (11728026_x_at): dose or concentration left out as unconfirmed", "conditions": "MV-4-11 cells, 48 hours", "data": [{"molecule": "Nc1ncn([C@@H]2O[C@H](CO)[C@@H](O)[C@H]2O)c(=O)n1", "note": "[azacitidine]", "values": [{"measurement": "RFU C1QL1 (11718748_at)", "result": 641.97, "unit": "RFU"}]}]}
